Values joined by “and” are separate entries in the source; they are usually repeats but may differ in a detail not shown here. Identical values can stand only once. Marks after values point to notes of the source that are not given here.
How the values were obtained:
[1] = Bioavailability of oxycodone, codeine and dihydrocodeine from their succinyl valine ester prodrugs in the dog (oral gavage, two-way crossover); conditions: dogs; for T>50%Cmax of oxycodone: 1 mg free base equivalents oxycodone/kg; for T>50%Cmax of dihydrocodeine: 1 mg free base equivalents dihydrocodeine/kg
Experimental: The characteristics of the test animals are set out in Table 10, below.
Blood samples were taken at various times after administration and submitted to analysis for the parent drug and pro-drug using a validated LC-MS-MS assay. Pharmacokinetic parameters derived from the plasma analytical data were determined using Win Nonlin.

[2] = test system: guinea pig small intestine myenteric plexus longitudinal muscle; experiment: Ex vivo smooth muscle contractility, electrical field stimulation response of isolated guinea pig small intestine; conditions: for EC50: Cavia porcellus, isolated guinea pig ileum, concentration as free base of opioid, read-out: EC50, opioid effect on electrical field stimulation response
gut motility in the rat = experiment: Charcoal propulsion test of GI motility in the rat; assay type: in vivo; conditions: oral; for delay of the passage of the charcoal meal (gut motility): 30 mg/kg or equimolar dose
Experimental: Test treatments were administered to groups of up to 10 rats fasted overnight prior to the test.
Test treatments were administered orally 60 minutes prior to a 2.0 mL oral dose of a 10% suspension of charcoal in 5% gum arabic. Thirty minutes after dosing with charcoal, the rats were sacrificed and the entire gastro-intestinal tract quickly and carefully removed. The distance the charcoal meal had traveled from the pyloric sphincter toward the caecum was measured and expressed as a percentage of both the total gut length and the length of the small intestine.

[3] = Comparative oral bioavailability of oxycodone from various dicarboxylate bridged amino acid prodrugs in dogs (nine-way crossover); assay type: in vivo, dog; conditions: 1 mg/kg oxycodone free base, mean (±sd)
[4] = Systemic availability of oxycodone after intranasal insufflation to dogs; conditions: nominal […] equivalents; for half-life: t½ of intact prodrug
[5] = Comparative pharmacokinetics of oxycodone in the cynomolgus monkey after oral administration
[6] = Comparative pharmacokinetics of oxycodone after oral administration to female Sprague Dawley rats; conditions: 10 mg oxycodone free base equivalents/kg; for T>50%Cmax of oxycodone: oral
[7] = In vitro stability of dicarboxylate amino acid ester prodrugs in simulated gastric and intestinal juice, distilled water and pH 10 buffer (HPLC)
[8] = Plasma pharmacokinetics of meptazinol dicarboxylate linked prodrugs after oral gavage to dogs; assay type: in vivo, dog; conditions: dog, plasma, 1 mg meptazinol base equivalents/kg body weight, oral, read-out: expected Cmax of meptazinol after giving the drug itself
[9] = in vivo; cited from earlier work
[10] = cited from earlier work
[11] = in vivo; cited from earlier work; remark: listed apart in the source
[12] = rat model; cited from earlier work
[13] = oral gavage, individual dogs 1-5
[14] = male cynomolgus monkeys, oral prodrug, 1 mg oxycodone free base equivalents/kg, individual monkeys 1-5
[15] = male cynomolgus monkeys, oral, 1 mg oxycodone free base equivalents/kg, mean (n=5)
[16] = oral prodrug, individual rats, listed as Oxycodone succinyl valine enol ester

COc1ccc2c3c1O[C@H]1[C@@H](OC(=O)CCC(=O)NC(C(=O)O)C(C)C)C=CC4[C@@H](C2)N(C)CC[C@@]341 (stereo in doubt) [Codeine-[succinyl-(S)-valine] ester, codeine-[succinyl-(S)-valine]ester]
T>50%Cmax of codeine ([1]; oral gavage, 1 mg free base equivalents codeine/kg, median (n=5)): 2 h
EC50 [2]: 6.3 µM
reduction in potency compared to parent drug ([2]; guinea pig ileal smooth muscle): 50%
delay of the passage of the charcoal meal (gut motility) (gut motility in the rat): less than half the amount of codeine

COc1ccc2c3c1O[C@H]1C(OC(=O)CCC(=O)NC(C(=O)O)C(C)C)=CC[C@@]4(O)[C@@H](C2)N(C)CC[C@]314 (stereo in doubt) [oxycodone-[succinyl-(S)-valine] enol ester]
T>50%Cmax of oxycodone [1, 13]: 1.5 h (3×) and 2.5 h (2×)
T>50%Cmax of oxycodone ([1]; oral gavage, median (n=5)): 1.5^a h
period for which plasma concentrations were maintained above 50% of Cmax, compared to the drug itself ([1]; oral, oxycodone in plasma): three times longer
EC50 [2]: 2 µM
reduction in the opioid effects compared to oxycodone itself ([2]; guinea pig ileal smooth muscle): 10 fold
% change from vehicle-treated animals, small intestine (gut motility in the rat; 10 mg/kg): −12.1%
% change from vehicle-treated animals, total gut length (gut motility in the rat; 10 mg/kg): −11.2%
% change from vehicle-treated animals, small intestine (gut motility in the rat; 30 mg/kg): −15.8%
% change from vehicle-treated animals, total gut length (gut motility in the rat; 30 mg/kg): −15.6%
delay of the passage of the charcoal meal (gut motility) (gut motility in the rat): ~16%
% change from vehicle-treated animals, small intestine (gut motility in the rat; 100 mg/kg): −35.4%
% change from vehicle-treated animals, total gut length (gut motility in the rat; 100 mg/kg): −35.0%
T50% Cmax of oxycodone [3]: 1.6 (±0.3) h.
AUC ([4]; male, beagle, dog, plasma, other: intranasal insufflation, 0.25 mg oxycodone free base equivalents/kg, AUC of intact prodrug, mean): 10.3 ng·h/mL
AUC(0-t) ([4]; male, beagle, dog, plasma, other: intranasal insufflation, 0.25 mg oxycodone free base equivalents/kg, AUCt of intact prodrug, mean): 5.93 ng·h/mL
Cmax ([4]; male, beagle, dog, plasma, other: intranasal insufflation, 0.25 mg oxycodone free base equivalents/kg, Cmax of intact prodrug, mean): 4.87 ng/mL
Tmax ([4]; male, beagle, dog, plasma, other: intranasal insufflation, 0.25 mg oxycodone free base equivalents/kg, Tmax of intact prodrug, median): 15 min
half-life ([4]; male, beagle, dog, plasma, other: intranasal insufflation, 0.25 mg oxycodone free base equivalents/kg, calculated as ln2/mean k): 45 min
half-life ([4]; male, beagle, dog, plasma, other: intranasal insufflation, 0.25 mg oxycodone free base equivalents/kg, individual dogs): 51 min
Tmax of intact prodrug ([4]; individual dogs): 60 min
AUCt of intact prodrug [5, 14]: 0.76 ng·h/mL and 1.70 ng·h/mL and 0.39 ng·h/mL and 0.32 ng·h/mL and 0.71 ng·h/mL
Cmax of intact prodrug [5, 14]: 1.29 ng/mL and 2.92 ng/mL and 0.57 ng/mL and 0.42 ng/mL and 1.02 ng/mL
T>50%Cmax of oxycodone ([5]; male cynomolgus monkeys, oral, 1 mg oxycodone free base equivalents/kg, individual monkeys 1-5): 1.54 h and 1.63 h and 3.45 h and 4.43 h and 1.38 h
T>50%Cmax of oxycodone [5, 15]: 2.49 h
T>50%Cmax of oxycodone ([5]; male cynomolgus monkeys, oral, 1 mg oxycodone free base equivalents/kg, mean (n=5), listed as oxycodone succinyl valine ester): 2.5 h
AUC(0-t) ([5]; male, cynomolgus monkey, plasma, po, 1 mg oxycodone base equivalents/kg, AUCt of intact prodrug, male cynomolgus monkeys, oral prodrug, 1 mg oxycodone free base equivalents/kg, mean (n=5)): 0.78 ng·h/mL
Cmax ([5]; male, cynomolgus monkey, plasma, po, 1 mg oxycodone base equivalents/kg, Cmax of intact prodrug, male cynomolgus monkeys, oral prodrug, 1 mg oxycodone free base equivalents/kg, mean (n=5)): 1.24 ng/mL
prodrug Cmax as % of Cmax of the active drug ([5]; monkeys, oral prodrug): ~7%
AUC of oxycodone ([5]; monkeys, oral, 1 mg oxycodone base equivalents/kg): 42.3 ng/h/mL
AUC(0-t) ([6]; female, Sprague Dawley, rat, plasma, po, AUCt of intact prodrug, oral prodrug, mean (BLQ taken as zero)): 1.24 ng·h/mL
Cmax ([6]; female, Sprague Dawley, rat, plasma, po, Cmax of intact prodrug, oral prodrug, mean (BLQ taken as zero)): 2.35 ng/mL
Tmax ([6]; female, Sprague Dawley, rat, plasma, po, Tmax of intact prodrug, oral prodrug, median): 22.5 min
AUCt of intact prodrug [6, 16]: 3.53 ng · h/mL and 2.55 ng · h/mL and BLQ (2×) and 0.131 ng · h/mL
Cmax of intact prodrug [6, 16]: 6.77 ng/mL and 2.00 ng/mL and BLQ and 1.93 ng/mL and 1.05 ng/mL
Tmax of intact prodrug [6, 16]: 90 min
T>50%Cmax of oxycodone ([6]; individual rats, listed as Oxycodone succinyl valine enol ester): 11.8 h (2×) and 3.5 h and 3.75 h and 2 h
T>50%Cmax of oxycodone ([6]; median, listed as Oxycodone succinyl valine enol ester): 3.75^a h
T>50%Cmax of oxycodone ([6]; median, listed as oxycodone succinyl valine ester): 3.75 h
Simulated gastric fluid (pH 1.1): % remaining after 2 h/37° C. ([7]; pH 1.1, 2 h, 37° C.): 98%
Distilled water (pH 5.9): % remaining after 2 h/20° C. ([7]; pH 5.9, 2 h, 20° C.): 100%
Simulated intestinal fluid (pH 6.8): % remaining after 2 h/37° C. ([7]; pH 6.8, 2 h, 37° C.): 85%
pH 10.0 buffer: % remaining after 2 h/20° C. ([7]; pH 10.0, 2 h, 20° C.): 64%

COc1ccc2c3c1O[C@H]1[C@@H](O)CC[C@H]4[C@@H](C2)N(C)CC[C@@]341 [Dihydrocodeine, dihydrocodeine, reference compound]
T>50%Cmax of dihydrocodeine [1, 13]: 0.5 h
T>50%Cmax of dihydrocodeine ([1]; oral gavage, median (n=5)): 0.5^a h
T>50%Cmax of dihydrocodeine ([1]; oral gavage, median (n=5), listed as dihydrocodeine): 0.5 h
EC50 [2]: 5 µM
delay of the passage of the charcoal meal (gut motility) (gut motility in the rat): ~30%

CCC1(c2cccc(O)c2)CCCCN(C)C1 (stereo not drawn) [Meptazinol, meptazinol, reference compound]
Cmax [8]: 2 to 5 ng/mL
oral bioavailability [9]: < 10%

COc1ccc2c3c1O[C@H]1C(=O)CC[C@@]4(O)[C@@H](C2)N(C)CC[C@]314.Cl [Oxycodone HCl, oxycodone hydrochloride, reference compound]
T>50%Cmax of oxycodone [1, 13]: 0.5 h
T>50%Cmax of oxycodone ([1]; oral gavage, median (n=5)): 0.5^a h
T50% Cmax of oxycodone [3]: 2.0 (±0.6) h.
T>50%Cmax of oxycodone ([5]; male cynomolgus monkeys, oral, 1 mg oxycodone free base equivalents/kg, individual monkeys 1-5, hydrochloride): 1.84 h and 1.18 h and 1.89 h and 2.37 h and 1.79 h
T>50%Cmax of oxycodone [5, 15]: 1.81 h
T>50%Cmax of oxycodone ([6]; individual rats, hydrochloride): 1.75 h (2×) and 0.75 h (2×) and 0.5 h
T>50%Cmax of oxycodone ([6]; median): 0.75^a h

COc1ccc2c3c1O[C@H]1[C@@H](OC(=O)CCC(=O)N[C@H](C(=O)O)C(C)C)CCC4[C@@H](C2)N(C)CC[C@@]341 (stereo partly drawn) [dihydrocodeine-[succinyl-(S)-valine]ester]
T>50%Cmax of dihydrocodeine ([1]; oral gavage, median (n=5)): 2 h
EC50 [2]: 20 µM
delay of the passage of the charcoal meal (gut motility) (gut motility in the rat): 8.5%

CCC(=O)Oc1ccc2c3c1O[C@H]1[C@@H](O)C=C[C@H]4[C@@H](C2)N(C)CC[C@@]341 [morphine-3-propionate]
half-life of hydrolysis in human plasma [10]: less than 5 minutes

CC(C)[C@H](N)C(=O)OCCOCn1cnc2c(=O)nc(N)[nH]c21 [valine ester of acyclovir]
chemical degradation in the GI tract before absorption [11]: 15-25%

(Z)-3-[2-(propionyloxy)phenyl]-2-propanoic ester
bioavailability over meptazinol itself [12]: significant increase in bioavailability
